# According to ChEMBL document CHEMBL3352713, “A new class of salicylic acid derivatives for inhibiting YopH of Yersinia pestis” (Bioorg Med Chem, 2014):
# Legend:
# [1] = Inhibition of Yersinia pestis YopH using […] as substrate by spectrophotometry
# [2] = Selectivity for Yersinia pestis YopH over HePTP (unknown origin) at 5 nM
# [3] = Selectivity for Yersinia pestis YopH over TCPTP (unknown origin) at 5 nM
# [4] = Selectivity for Yersinia pestis YopH over VHR (unknown origin) at 5 nM
# [5] = Selectivity for Yersinia pestis YopH over PTP1B (unknown origin) at 5 nM
# [6] = Selectivity for Yersinia pestis YopH over CD45 (unknown origin) at 5 nM
# [7] = Selectivity for Yersinia pestis YopH over Cdc25A (unknown origin) at 5 nM
smiles,measurement,setting,value
O=C(CCCCNC(=O)c1cc(-c2ccc(O)c(C(=O)O)c2)cs1)Nc1nc2ccccc2s1,IC50,[1],39.5 µM
O=C(CCCCNC(=O)c1cc(-c2ccc(O)c(C(=O)O)c2)on1)Nc1nc(-c2ccccc2)cs1,IC50,[1],23 µM
O=C(O)C1=CC(=C(c2ccc(O)c(C(=O)O)c2)c2ccc(O)c(C(=O)O)c2)C=CC1=O [AURINTRICARBOXYLIC ACID],Selectivity ratio,[2],6
same,Selectivity ratio,[3],6
same,Ki,[1],0.005 µM
same,Selectivity ratio,[4],6
same,Selectivity ratio,[5],6
same,Selectivity ratio,[6],6
same,Selectivity ratio,[7],6
O=C(CCCCNC(=O)c1ccc(-c2ccc(O)c(C(=O)O)c2)s1)Nc1ccc(N2CCOCC2)cc1,IC50,[1],> 200 µM
O=C(CCCCNC(=O)c1cc(-c2ccc(O)c(C(=O)O)c2)on1)Nc1ccc(N2CCOCC2)cc1,IC50,[1],63 µM
O=C(CCCCNC(=O)c1ccc(-c2ccc(O)c(C(=O)O)c2)s1)NCc1ccccc1,IC50,[1],> 200 µM
O=C(CCCCNC(=O)c1cc(-c2ccc(O)c(C(=O)O)c2)cs1)Nc1nc(-c2ccccc2)cs1,IC50,[1],44.2 µM
O=C(CCCCNC(=O)c1ccc(-c2ccc(O)c(C(=O)O)c2)s1)Nc1nc(-c2ccccc2)cs1,IC50,[1],11.1 µM
O=C(CCCCNC(=O)c1ccc(-c2ccc(O)c(C(=O)O)c2)s1)Nc1nc2ccccc2s1,IC50,[1],> 20 µM
O=C(CCNC(=O)c1ccc(-c2ccc(O)c(C(=O)O)c2)s1)Nc1nc(-c2ccccc2)cs1,IC50,[1],> 50 µM
